In patent US9304136B2, “Means and methods for assessing increased peroxisomal proliferation” (BASF SE, priority 2008, dated 2016):

Key:
female rats = assay: Plasma metabolite profiling after 28-day oral dosing, female rats (markers for peroxisomal proliferators); assay type: in vivo, rat; conditions: once daily gavage; for 16-Methylheptadecanoic acid, change in plasma relative to control / 17-Methyloctadecanoic acid, change in plasma relative to control / Cytosine, change in plasma relative to control / Phosphatidylcholine (C18:0/C22:6), change in plasma relative to control: marker direction down; for Coenzyme Q9, change in plasma relative to control / Gamma-Linolenic acid (C18:cis[6,9,12]3), change in plasma relative to control / Glycerol, lipid fraction, change in plasma relative to control / Palmitic acid (C16:0), change in plasma relative to control / Pantothenic acid, change in plasma relative to control / Threonic acid, change in plasma relative to control: marker direction up
Procedure: (§1) A group of each 5 male and female rats was dosed once daily with the indicated compounds (see tables below) at 10 and 100 mg/kg body weight per gavage over 28 days. Additional groups of each 5 male and female animals served as controls. Before starting the treatment period, animals, which were 62-64 days old when supplied, were acclimatized to the housing and environmental conditions for 7 days. All animals of the animal population were kept under the same constant temperature (20-24±3° C.) and the same constant humidity (30-70%). Each animal of the animal population was kept in a separate cage. The animals of the animal population are fed ad libitum. The food to be used was be essentially free of chemical or microbial contaminants. Drinking water was also offered ad libitum. Accordingly, the water was be free of chemical and microbial contaminants as laid down in the European Drinking Water Directive 98/83/EG. The illumination period was 12 hours light followed by 12 hours darkness (12 hours light, from 6:00 to 18:00, and 12 hours darkness, from 18:00 to 6:00).
(§2) In the morning of day 7, 14, and 28, blood was taken from the retroorbital venous plexus from fasted anaesthetized animals. From each animal, 1 ml of blood was collected with EDTA as anticoagulant. The samples were be centrifuged for generation of plasma. All plasma samples were covered with a N2 atmosphere and then stored at −80° C. until analysis.
(§3) For mass spectrometry-based metabolite profiling analyses plasma samples were extracted and a polar and a non-polar fraction was obtained. For GC-MS analysis, the non-polar fraction was […] with methanol under acidic conditions to yield the fatty acid methyl esters. Both fractions were further derivatised with O-methyl-hydroxyamine hydrochloride and pyridine to convert Oxo-groups to O-metyloximes and subsequently with a silyating agent […]. In LC-MS analysis, both fractions were reconstituted in appropriate solvent mixtures. HPLC was performed by gradient elution on reversed phase separation columns. For mass spectrometric detection metanomics proprietary technology was applied which allows target and high sensitivity MRM (Multiple Reaction Monitoring) profiling in parallel to a full screen analysis.
(§4) Following comprehensive analytical validation steps, the data for each analyte were normalized against data from pool samples. These samples were run in parallel through the whole process to account for process variability. The significance of treatment group values specific for sex, dose group and metabolite was determined by comparing means of the treated groups to the means of the respective untreated control groups using Student's t-test. Normalized treatment group values and their significance were fed into a database for further statistics and data mining processes.
(§5) The changes of the group of plasma metabolites being indicative for increased peroxisomal proliferation after treatment of the rats are shown in the following tables: […]

male rats = assay: Plasma metabolite profiling after 28-day oral dosing, male rats (markers for peroxisomal proliferators); assay type: in vivo, rat; conditions: once daily gavage; for 16-Methylheptadecanoic acid, change in plasma relative to control / 17-Methyloctadecanoic acid, change in plasma relative to control / Coenzyme Q10, change in plasma relative to control / Proline, change in plasma relative to control / Threonine, change in plasma relative to control / Tyrosine, change in plasma relative to control / trans-4-Hydroxyproline, change in plasma relative to control: marker direction down; for Eicosatrienoic acid (C20:3), change in plasma relative to control: marker direction up
Procedure: as §1, §2, §3, §4, §5

CCOC(=O)C(C)(C)Oc1ccc(Cl)cc1 [Clofibrate]
16-Methylheptadecanoic acid, change in plasma relative to control (female rats; fh7 (day 7)): 0.55
17-Methyloctadecanoic acid, change in plasma relative to control (female rats; fh7 (day 7)): 0.48
Cytosine, change in plasma relative to control (female rats; fh7 (day 7)): 0.87
Phosphatidylcholine (C18:0/C22:6), change in plasma relative to control (female rats; fh7 (day 7)): 0.88
Coenzyme Q9, change in plasma relative to control (female rats; fh7 (day 7)): 1.86
Gamma-Linolenic acid (C18:cis[6,9,12]3), change in plasma relative to control (female rats; fh7 (day 7)): 2.04
Glycerol, lipid fraction, change in plasma relative to control (female rats; fh7 (day 7)): 1.39
Palmitic acid (C16:0), change in plasma relative to control (female rats; fh7 (day 7)): 1.05
Pantothenic acid, change in plasma relative to control (female rats; fh7 (day 7)): 1.07
Threonic acid, change in plasma relative to control (female rats; fh7 (day 7)): 1.23
16-Methylheptadecanoic acid, change in plasma relative to control (female rats; fh14 (day 14)): 0.75
17-Methyloctadecanoic acid, change in plasma relative to control (female rats; fh14 (day 14)): 0.57
Cytosine, change in plasma relative to control (female rats; fh14 (day 14)): 0.86
Phosphatidylcholine (C18:0/C22:6), change in plasma relative to control (female rats; fh14 (day 14)): 0.71
Coenzyme Q9, change in plasma relative to control (female rats; fh14 (day 14)): 1.64
Gamma-Linolenic acid (C18:cis[6,9,12]3), change in plasma relative to control (female rats; fh14 (day 14)): 1.88
Glycerol, lipid fraction, change in plasma relative to control (female rats; fh14 (day 14)): 1.64
Palmitic acid (C16:0), change in plasma relative to control (female rats; fh14 (day 14)): 1.38
Pantothenic acid, change in plasma relative to control (female rats; fh14 (day 14)): 1.75
Threonic acid, change in plasma relative to control (female rats; fh14 (day 14)): 1.30
16-Methylheptadecanoic acid, change in plasma relative to control (female rats; fh28 (day 28)): 0.75
17-Methyloctadecanoic acid, change in plasma relative to control (female rats; fh28 (day 28)): 0.77
Cytosine, change in plasma relative to control (female rats; fh28 (day 28)): 1.00
Phosphatidylcholine (C18:0/C22:6), change in plasma relative to control (female rats; fh28 (day 28)): 0.53
Coenzyme Q9, change in plasma relative to control (female rats; fh28 (day 28)): 2.55
Gamma-Linolenic acid (C18:cis[6,9,12]3), change in plasma relative to control (female rats; fh28 (day 28)): 7.00
Glycerol, lipid fraction, change in plasma relative to control (female rats; fh28 (day 28)): 4.99
Palmitic acid (C16:0), change in plasma relative to control (female rats; fh28 (day 28)): 2.31
Pantothenic acid, change in plasma relative to control (female rats; fh28 (day 28)): 1.22
Threonic acid, change in plasma relative to control (female rats; fh28 (day 28)): 1.30
16-Methylheptadecanoic acid, change in plasma relative to control (male rats; mh7 (day 7)): 0.24
17-Methyloctadecanoic acid, change in plasma relative to control (male rats; mh7 (day 7)): 0.35
Coenzyme Q10, change in plasma relative to control (male rats; mh7 (day 7)): 0.45
Proline, change in plasma relative to control (male rats; mh7 (day 7)): 0.78
Threonine, change in plasma relative to control (male rats; mh7 (day 7)): 0.68
Tyrosine, change in plasma relative to control (male rats; mh7 (day 7)): 0.87
trans-4-Hydroxyproline, change in plasma relative to control (male rats; mh7 (day 7)): 0.77
Eicosatrienoic acid (C20:3), change in plasma relative to control (male rats; mh7 (day 7)): 1.65
16-Methylheptadecanoic acid, change in plasma relative to control (male rats; mh14 (day 14)): 0.21
17-Methyloctadecanoic acid, change in plasma relative to control (male rats; mh14 (day 14)): 0.27
Coenzyme Q10, change in plasma relative to control (male rats; mh14 (day 14)): 0.60
Proline, change in plasma relative to control (male rats; mh14 (day 14)): 0.80
Threonine, change in plasma relative to control (male rats; mh14 (day 14)): 1.02
Tyrosine, change in plasma relative to control (male rats; mh14 (day 14)): 0.95
trans-4-Hydroxyproline, change in plasma relative to control (male rats; mh14 (day 14)): 0.64
Eicosatrienoic acid (C20:3), change in plasma relative to control (male rats; mh14 (day 14)): 1.72
16-Methylheptadecanoic acid, change in plasma relative to control (male rats; mh28 (day 28)): 0.28
17-Methyloctadecanoic acid, change in plasma relative to control (male rats; mh28 (day 28)): 0.37
Coenzyme Q10, change in plasma relative to control (male rats; mh28 (day 28)): 0.47
Proline, change in plasma relative to control (male rats; mh28 (day 28)): 0.87
Threonine, change in plasma relative to control (male rats; mh28 (day 28)): 1.06
Tyrosine, change in plasma relative to control (male rats; mh28 (day 28)): 1.02
trans-4-Hydroxyproline, change in plasma relative to control (male rats; mh28 (day 28)): 0.57
Eicosatrienoic acid (C20:3), change in plasma relative to control (male rats; mh28 (day 28)): 2.54

CCCCOC(=O)c1ccccc1C(=O)OCc1ccccc1 [Benzylbutyl Phthalate]
16-Methylheptadecanoic acid, change in plasma relative to control (female rats; fh7 (day 7)): 0.55
17-Methyloctadecanoic acid, change in plasma relative to control (female rats; fh7 (day 7)): 0.78
Cytosine, change in plasma relative to control (female rats; fh7 (day 7)): 0.77
Phosphatidylcholine (C18:0/C22:6), change in plasma relative to control (female rats; fh7 (day 7)): 0.59
Coenzyme Q9, change in plasma relative to control (female rats; fh7 (day 7)): 1.44
Gamma-Linolenic acid (C18:cis[6,9,12]3), change in plasma relative to control (female rats; fh7 (day 7)): 1.98
Glycerol, lipid fraction, change in plasma relative to control (female rats; fh7 (day 7)): 1.15
Palmitic acid (C16:0), change in plasma relative to control (female rats; fh7 (day 7)): 1.48
Pantothenic acid, change in plasma relative to control (female rats; fh7 (day 7)): 1.82
Threonic acid, change in plasma relative to control (female rats; fh7 (day 7)): 1.20
16-Methylheptadecanoic acid, change in plasma relative to control (female rats; fh14 (day 14)): 0.66
17-Methyloctadecanoic acid, change in plasma relative to control (female rats; fh14 (day 14)): 0.64
Cytosine, change in plasma relative to control (female rats; fh14 (day 14)): 0.63
Phosphatidylcholine (C18:0/C22:6), change in plasma relative to control (female rats; fh14 (day 14)): 0.86
Coenzyme Q9, change in plasma relative to control (female rats; fh14 (day 14)): 1.50
Gamma-Linolenic acid (C18:cis[6,9,12]3), change in plasma relative to control (female rats; fh14 (day 14)): 1.64
Glycerol, lipid fraction, change in plasma relative to control (female rats; fh14 (day 14)): 1.48
Palmitic acid (C16:0), change in plasma relative to control (female rats; fh14 (day 14)): 1.79
Pantothenic acid, change in plasma relative to control (female rats; fh14 (day 14)): 2.06
Threonic acid, change in plasma relative to control (female rats; fh14 (day 14)): 1.53
16-Methylheptadecanoic acid, change in plasma relative to control (female rats; fh28 (day 28)): 0.85
17-Methyloctadecanoic acid, change in plasma relative to control (female rats; fh28 (day 28)): 0.69
Cytosine, change in plasma relative to control (female rats; fh28 (day 28)): 0.79
Phosphatidylcholine (C18:0/C22:6), change in plasma relative to control (female rats; fh28 (day 28)): 0.81
Coenzyme Q9, change in plasma relative to control (female rats; fh28 (day 28)): 1.78
Gamma-Linolenic acid (C18:cis[6,9,12]3), change in plasma relative to control (female rats; fh28 (day 28)): 2.08
Glycerol, lipid fraction, change in plasma relative to control (female rats; fh28 (day 28)): 2.43
Palmitic acid (C16:0), change in plasma relative to control (female rats; fh28 (day 28)): 1.94
Pantothenic acid, change in plasma relative to control (female rats; fh28 (day 28)): 2.42
Threonic acid, change in plasma relative to control (female rats; fh28 (day 28)): 1.74
16-Methylheptadecanoic acid, change in plasma relative to control (male rats; mh7 (day 7)): 0.24
17-Methyloctadecanoic acid, change in plasma relative to control (male rats; mh7 (day 7)): 0.37
Coenzyme Q10, change in plasma relative to control (male rats; mh7 (day 7)): 0.51
Proline, change in plasma relative to control (male rats; mh7 (day 7)): 0.74
Threonine, change in plasma relative to control (male rats; mh7 (day 7)): 0.55
Tyrosine, change in plasma relative to control (male rats; mh7 (day 7)): 0.74
trans-4-Hydroxyproline, change in plasma relative to control (male rats; mh7 (day 7)): 0.69
Eicosatrienoic acid (C20:3), change in plasma relative to control (male rats; mh7 (day 7)): 2.56
16-Methylheptadecanoic acid, change in plasma relative to control (male rats; mh14 (day 14)): 0.31
17-Methyloctadecanoic acid, change in plasma relative to control (male rats; mh14 (day 14)): 0.28
Coenzyme Q10, change in plasma relative to control (male rats; mh14 (day 14)): 0.34
Proline, change in plasma relative to control (male rats; mh14 (day 14)): 0.85
Threonine, change in plasma relative to control (male rats; mh14 (day 14)): 0.69
Tyrosine, change in plasma relative to control (male rats; mh14 (day 14)): 0.83
trans-4-Hydroxyproline, change in plasma relative to control (male rats; mh14 (day 14)): 0.65
Eicosatrienoic acid (C20:3), change in plasma relative to control (male rats; mh14 (day 14)): 3.12
16-Methylheptadecanoic acid, change in plasma relative to control (male rats; mh28 (day 28)): 0.20
17-Methyloctadecanoic acid, change in plasma relative to control (male rats; mh28 (day 28)): 0.30
Coenzyme Q10, change in plasma relative to control (male rats; mh28 (day 28)): 0.27
Proline, change in plasma relative to control (male rats; mh28 (day 28)): 0.84
Threonine, change in plasma relative to control (male rats; mh28 (day 28)): 0.81
Tyrosine, change in plasma relative to control (male rats; mh28 (day 28)): 0.97
trans-4-Hydroxyproline, change in plasma relative to control (male rats; mh28 (day 28)): 0.83
Eicosatrienoic acid (C20:3), change in plasma relative to control (male rats; mh28 (day 28)): 4.12
